Reference: patent publication US9765035B2 (priority 2013, dated 2017)

Biological target: T1, Human CARM1 (PRMT4) (Homo sapiens, UniProt Q86X55)
T1 construct: Flag-CARM1-His; made in house; host or cells: HEK 293F cells (BacMam baculovirus)
T1 sequence (Q86X55 1-585 isoform Q86X55-1): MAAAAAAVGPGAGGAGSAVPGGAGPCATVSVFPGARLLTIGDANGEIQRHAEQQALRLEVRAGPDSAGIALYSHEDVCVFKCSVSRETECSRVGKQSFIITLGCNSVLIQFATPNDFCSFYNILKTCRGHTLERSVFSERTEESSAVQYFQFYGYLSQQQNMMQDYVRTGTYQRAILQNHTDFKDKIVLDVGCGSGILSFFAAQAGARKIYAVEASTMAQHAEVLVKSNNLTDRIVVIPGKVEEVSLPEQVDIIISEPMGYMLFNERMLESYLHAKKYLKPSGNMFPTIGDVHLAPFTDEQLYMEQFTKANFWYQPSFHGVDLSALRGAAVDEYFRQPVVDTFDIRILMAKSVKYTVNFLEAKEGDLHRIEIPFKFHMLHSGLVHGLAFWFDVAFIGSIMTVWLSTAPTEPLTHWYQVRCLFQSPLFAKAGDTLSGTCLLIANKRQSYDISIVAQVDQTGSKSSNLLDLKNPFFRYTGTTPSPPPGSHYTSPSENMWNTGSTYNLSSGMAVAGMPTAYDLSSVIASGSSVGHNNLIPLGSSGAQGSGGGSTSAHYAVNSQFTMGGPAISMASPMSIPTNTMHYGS
Assay: CARM1 Biochemical Assay
Excerpt: General Materials. S-adenosylmethionine (SAM), S-adenosylhomocysteine (SAH), bicine, Tween20, dimethylsulfoxide (DMSO), bovine skin gelatin (BSG), sodium butyrate and Tris(2-carboxyethyl)phosphine hydrochloride solution (TCEP) were purchased from Sigma-Aldrich at the highest level of purity possible. ^3H-SAM was purchase from American Radiolabeled Chemicals with a specific activity of 80 Ci/mmol. 384-well streptavidin Flashplates were purchased from PerkinElmer.
Substrates. Peptide representative of human histone H3 residues 16-30 was synthesized with an N-terminal linker-affinity tag motif and a C-terminal amide cap by 21st Century Biochemicals. The peptide was purified by high-performance liquid chromatography (HPLC) to greater than 95% purity and confirmed by liquid chromatography mass spectrometry (LC-MS). The sequence was Biot-Ahx-[…]-amide and contained a monomethylated arginine at position 26 (SEQ ID NO.: 14).
Molecular Biology: Human CARM1 (PRMT4) (NM_199141.1) transcript clone was amplified from an HEK 293 cDNA library, incorporating a flanking 5′ sequence encoding a FLAG tag ([…]) (SEQ ID NO.:6) fused directly to Ala 2 of CARM1 and 3′ sequence encoding a hexa His sequence ([…]) (SEQ ID NO.: 15) fused directly to Ser 608. The gene sequence encoding isoform1 containing a deletion of amino acids 539-561 was amplified subsequently and subcloned into pFastBacMam (Viva Biotech).
Protein Expression. Recombinant baculovirus were generated according to Bac-to-Bac kit instructions (Life Technologies). […] Infections were carried out at 37° C. for 48 hours, harvested by centrifugation, and stored at −80° C. for purification.
Protein Purification. […] Column was washed with 500 mM NaCl in buffer A and Flag-CARM1-His was eluted with 200 ug/ml FLAG peptide in buffer A. Pooled fractions were dialyzed in 20 mM Tris, 150 mM NaCl, 5% glycerol and 1 mM DTT, pH 7.8. The purity of recovered protein was 94.
General Procedure for CARM1 Enzyme Assays on Peptide Substrates. The assays were all performed in a buffer consisting of 20 mM Bicine (pH=7.6), 1 mM TCEP, 0.005% BSG, and 0.002% Tween 20, prepared on the day of use. Compounds in 100% DMSO (1 ul) were spotted into a polypropylene 384-well V-bottom plates (Greiner) using a Platemate Plus outfitted with a 384-channel head (Thermo Scientific). DMSO (1 ul) was added to Columns 11, 12, 23, 24, rows A-H for the maximum signal control and 1 ul of SAH, a known product and inhibitor of CARM1, was added to columns 11, 12, 23, 24, rows I-P for the minimum signal control. A cocktail (40 ul) containing the CARM1 enzyme was added by Multidrop Combi (Thermo-Fisher). The compounds were allowed to incubate with CARM1 for 30 min at room temperature, then a cocktail (10 ul) containing ^3H-SAM and peptide was added to initiate the reaction (final volume=51 ul). The final concentrations of the components were as follows: CARM1 was 0.25 nM, ^3H-SAM was 30 nM, peptide was 250 nM, SAH in the minimum signal control wells was 1 mM, and the DMSO concentration was 2%. The assays were stopped by the addition of non-radiolabeled SAM (10 ul) to a final concentration of 300 uM, which dilutes the ^3H-SAM to a level where its incorporation into the peptide substrate is no longer detectable. 50 ul of the reaction in the 384-well polypropylene plate was then transferred to a 384-well Flashplate and the biotinylated peptides were allowed to bind to the streptavidin surface for at least 1 hour before being washed once with 0.1% Tween20 in a Biotek EL×405 plate washer. The plates were then read in a PerkinElmer TopCount plate reader to measure the quantity of ^3H-labeled peptide bound to the Flashplate surface, measured as disintegrations per minute (dpm) or alternatively, referred to as counts per minute (cpm).
Where dpm=disintegrations per minute, cmpd=signal in assay well, and min and max are the respective minimum and maximum signal controls. […]

[1] = PRMT4 IC50, biochemical evaluation, CARM1 (PRMT4), peptide substrate
[2] = PRMT4 biochemical evaluation (numerical), single experiment or average of multiple experiments

CNCCN(C)Cc1n[nH]c2ccc(Oc3ccccc3OC(C)C)cc12 [Compound 56]
IC50 [1]: 0.101 to 1 µM
IC50 [2]: > 10 µM

CNCCN(C)Cc1n[nH]c2ccc(Oc3ccc(C(F)(F)F)cc3)cc12 [Compound 39]
IC50 [1]: 0.101 to 1 µM
IC50 [2]: 2.88 µM

CNCCN(C)Cc1n[nH]c2ccc(N3CCCCC3)cc12 [Compound 46, N^1,N^2-dimethyl-N^1-((5-(piperidin-1-yl)-1H-indazol-3-yl)methyl)ethane-1,2-diamine]
IC50 [1]: 0.101 to 1 µM
IC50 [2]: 0.259 µM

CNCCN(C)Cc1n[nH]c2ccc(OCc3ccc(C(C)(C)C)cc3)cc12 [Compound 71]
IC50 [1]: 3.01 to 10 µM
IC50 [2]: 3.79 µM

CNCCN(C)Cc1n[nH]c2ccc(OC)cc12 [Compound 35]
IC50 [1]: 3.01 to 10 µM

CNCCN(C)Cc1n[nH]c2ccc(Oc3cccc(OC)c3)cc12 [Compound 22]
IC50 [1]: 0.101 to 1 µM

CCCOc1ccc2[nH]nc(CN(C)CCNC)c2c1 [Compound 65]
IC50 [1]: 0.101 to 1 µM
IC50 [2]: 4.94 µM

CNCCN(C)Cc1n[nH]c2ccc(OCc3ccc(C(F)(F)F)cc3)cc12 [Compound 68]
IC50 [1]: 3.01 to 10 µM
IC50 [2]: 1.7 µM

CNCCN(C)Cc1n[nH]c2ccc(C3CCCCC3)cc12 [Compound 47, N^1-((5-cyclohexyl-1H-indazol-3-yl)methyl)-N^1,N^2-dimethylethane-1,2-diamine]
IC50 [1]: 0.101 to 1 µM
IC50 [2]: 0.37 µM

CNCCN(C)Cc1n[nH]c2ccc(OCc3cccc(C(C)(C)C)c3)cc12 [Compound 74]
IC50 [1]: 0.101 to 1 µM
IC50 [2]: 0.305 µM

CNCCN(C)Cc1n[nH]c2ccc(C3=CCCCC3)cc12 [Compound 48]
IC50 [1]: 0.101 to 1 µM
IC50 [2]: 0.44 µM

CNCCN(C)Cc1n[nH]c2ccc(C(C)C)cc12 [Compound 42, N^1-((5-isopropyl-1H-indazol-3-yl)methyl)-N^1,N^2-dimethylethane-1,2-diamine]
IC50 [1]: 1.01 to 3 µM
IC50 [2]: 4.05 µM

CNCCN(C)Cc1n[nH]c2ccc(Oc3ccccc3Cl)cc12 [Compound 30]
IC50 [1]: 0.101 to 1 µM
IC50 [2]: 2.34 µM

CNCCN(C)Cc1n[nH]c2ccc(OCC3CCCCC3)cc12 [Compound 54]
IC50 [1]: 3.01 to 10 µM
IC50 [2]: > 10 µM

CNCCN(C)Cc1n[nH]c2ccc(OC3CCCCC3)cc12 [Compound 18]
IC50 [1]: 0.101 to 1 µM

CNCCN(C)Cc1nn(C)c2ccc(OCc3ccc(C#N)cc3)cc12 [Compound 32]
IC50 [1]: 0.101 to 1 µM
IC50 [2]: 0.188 µM

CNCCN(C)Cc1n[nH]c2ccc(Oc3ccc(C)cc3)cc12 [Compound 55]
IC50 [1]: 0.101 to 1 µM
IC50 [2]: > 10 µM

CNCCN(C)Cc1n[nH]c2ccc(Oc3cccc(C)c3)cc12 [Compound 26]
IC50 [1]: 0.101 to 1 µM
IC50 [2]: 0.0351 µM

CNCCN(C)Cc1n[nH]c2ccc(OCC3CCOCC3)cc12 [Compound 50]
IC50 [1]: 3.01 to 10 µM
IC50 [2]: 0.245 µM

CNCCN(C)Cc1n[nH]c2ccc(Oc3cccc(OC(C)C)c3)cc12 [Compound 67]
IC50 [1]: 3.01 to 10 µM
IC50 [2]: 0.683 µM

CNCCN(C)Cc1nn(C(C)C)c2ccc(OCc3ccc(C#N)cc3)cc12 [Compound 62]
IC50 [1]: 1.01 to 3 µM
IC50 [2]: 0.364 µM

CNCCN(C)Cc1n[nH]c2ccc(OCc3ccc(C(C)=O)cc3)cc12 [Compound 23]
IC50 [1]: 0.101 to 1 µM

CNCCN(C)Cc1n[nH]c2ccc(Oc3ccc(OC)cc3)cc12 [Compound 59]
IC50 [1]: < 0.1 µM
IC50 [2]: 0.313 µM

CCOc1ccc2[nH]nc(CN(C)CCNC)c2c1 [Compound 63]
IC50 [1]: 3.01 to 10 µM
IC50 [2]: 4.16 µM

CNCCN(C)Cc1n[nH]c2cccc(OCCC(C)C)c12 [Compound 31]
IC50 [2]: 0.423 µM

CNCCN(C)Cc1n[nH]c2ccc(Oc3ccccc3OC)cc12 [Compound 24]
IC50 [1]: < 0.1 µM
IC50 [2]: 0.115 µM

CNCCN(C)Cc1n[nH]c2ccc(O)cc12 [Compound 36, 3-((methyl(2-(methylamino)ethyl)amino)methyl)-1H-indazol-5-ol]
IC50 [1]: 3.01 to 10 µM
IC50 [2]: 6.13 µM

CNCCN(C)Cc1n[nH]c2ccc(Oc3ccc(OC(C)C)cc3)cc12 [Compound 61]
IC50 [1]: 3.01 to 10 µM
IC50 [2]: 0.0873 µM

CNCCN(C)Cc1n[nH]c2ccc(C3=CCOCC3)cc12 [Compound 45]
IC50 [1]: 0.101 to 1 µM
IC50 [2]: 0.16 µM

CNCCN(C)Cc1n[nH]c2ccc(Oc3ccc(C#N)cc3)cc12 [Compound 37]
IC50 [1]: 1.01 to 3 µM
IC50 [2]: > 10 µM

CNCCN(C)Cc1n[nH]c2ccc(C3CCOCC3)cc12 [Compound 44, N^1,N^2-dimethyl-N^1-((5-(tetrahydro-2H-pyran-4-yl)-1H-indazol-3-yl)methyl)ethane-1,2-diamine]
IC50 [1]: 0.101 to 1 µM
IC50 [2]: 1.01 µM

CNCCN(C)Cc1n[nH]c2ccc(OCc3ccc(C(N)=O)cc3)cc12 [Compound 69]
IC50 [1]: 3.01 to 10 µM
IC50 [2]: 4.16 µM

CNCCN(C)Cc1n[nH]c2ccc(OCc3cccc(NC(C)=O)c3)cc12 [Compound 70]
IC50 [1]: 0.101 to 1 µM
IC50 [2]: 3.7 µM

CNCCN(C)Cc1n[nH]c2ccc(Oc3cccc(C#N)c3)cc12 [Compound 28]
IC50 [1]: 1.01 to 3 µM
IC50 [2]: 0.26 µM

CNCCN(C)Cc1n[nH]c2ccc(OCc3cccc(C(F)(F)F)c3)cc12 [Compound 72]
IC50 [1]: 0.101 to 1 µM
IC50 [2]: 0.892 µM

CNCCN(C)Cc1n[nH]c2ccc(OC(C)C)cc12 [Compound 64]
IC50 [1]: 1.01 to 3 µM
IC50 [2]: 1.96 µM

CNCCN(C)Cc1n[nH]c2ccc(OC3CCN(C(C)=O)CC3)cc12 [Compound 58, 1-(4-((3-((methyl(2-(methylamino)ethyl)amino)methyl)-1H-indazol-5-yl)oxy)piperidin-1-yl)ethan-1-one]
IC50 [1]: 1.01 to 3 µM
IC50 [2]: 0.248 µM

CNCCN(C)Cc1n[nH]c2ccc(Oc3ccc(Cl)cc3)cc12 [Compound 57]
IC50 [1]: 0.101 to 1 µM
IC50 [2]: 0.333 µM

CNCCN(C)Cc1n[nH]c2ccc(OCc3ccn(C)n3)cc12 [Compound 20]
IC50 [2]: 0.153 µM

CNCCN(C)Cc1n[nH]c2ccc(OCc3cccc(C(C)=O)c3)cc12 [Compound 73]
IC50 [1]: 0.101 to 1 µM
IC50 [2]: 4.59 µM

CNCCN(C)Cc1c2cc(OCc3ccc(C#N)cc3)ccc2nn1C1CCOCC1 [Compound 53]
IC50 [1]: 3.01 to 10 µM
IC50 [2]: > 10 µM

CNCCN(C)Cc1n[nH]c2ccc(OC3CCOCC3)cc12 [Compound 29, N^1,N^2-dimethyl-N^1-((5-((tetrahydro-2H-pyran-4-yl)oxy)-1H-indazol-3-yl)methyl)ethane-1,2-diamine]
IC50 [1]: 0.101 to 1 µM
IC50 [2]: 0.446 µM

CNCCN(C)Cc1n[nH]c2ccc(OCc3cccc(C(N)=O)c3)cc12 [Compound 66]
IC50 [1]: 1.01 to 3 µM
IC50 [2]: 1.91 µM

CNCCN(C)Cc1c2cc(OCc3ccc(C#N)cc3)ccc2nn1C(C)C [Compound 34]
IC50 [1]: 3.01 to 10 µM
IC50 [2]: 0.31 µM
